Each structure is given as a SMILES string.

In patent US7700652B2, “Treating urinary incontinence using prodrugs of GABA analogs” (XenoPort, Inc., priority 2003, dated 2010) one finds release rate data, which are given here for one molecule.

The data set can be described thus: drug release from the osmotic sustained release dosage form in artificial gastric fluid. The note with it: sustained release oral osmotic dosage form of Example 1 (700 mg drug composition per bilayer core, one 10 mil passageway). The format is physicochemical. On the procedure: Next, one 10 mil (0.254 mm) exit passageway is mechanically drilled through the semipermeable wall to connect the drug layer with the exterior of the dosage system. The residual solvent is removed by first drying for 120 hours at 50° C. and 30% relative humidity, then the systems are dried for 2 hours at 50° C. to remove excess moisture. The drug dosage form produced by this process provides: ˜90 wt % 1-{[(α-isobutanoyloxyethoxy)carbonyl]aminomethyl}-1-cyclohexane acetic acid, 4 wt % hydroxypropylmethylcellulose (11,200 molecular weight), 4 wt % polyethylene oxide of 5,000,000 molecular weight and 1 wt % magnesium stearate in the drug layer. The push composition comprises […] polyethylene oxide (7,500,000 molecular weight) 30 wt % sodium chloride, 5 wt % hydroxypropylmethylcellulose (11,200 molecular weight) 1 wt % red ferric oxide, 0.25 wt % magnesium stearate, and 0.075 wt % of butylated hydroxytoluene. The wall comprises 100 wt % cellulose acetate comprising a ˜40% acetyl content. The dosage form has one passageway, 10 mils (0.254 mm), and it has a 1-{[(α-isobutanoyloxyethoxy)carbonyl]aminomethyl}-1-cyclohexane acetic acid release rate of >20 mg/hr and a half life for drug release of >8 hours in artificial gastric fluid.

`CC(OC(=O)NCC1(CC(=O)O)CCCCC1)OC(=O)C(C)C` (stereo not drawn) [1-{[(α-isobutanoyloxyethoxy)carbonyl]aminomethyl}-1-cyclohexane acetic acid] returned a release rate greater than 20 mg/h.
